PubChem BioAssay (NCI)
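Five concentrations, 48 hours, 96-well plates. TGI is the concentration that stops growth completely.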

Tests used:
Assay in all cases: inhibition of tumour cell growth, NCI panel, 48 h
[1] = system: 786-0 renal
[2] = system: DMS 114 small cell lung
[3] = system: DMS 273 small cell lung
[4] = system: HOP-62 NSCLC
[5] = system: HOP-92 NSCLC
[6] = system: OVCAR-3 ovarian
[7] = system: SNB-75 CNS
[8] = system: U251 CNS
[9] = system: MCF7 breast
[10] = system: LXFL 529 NSCLC
[11] = system: PC-3 prostate
[12] = system: T-47D breast

| SMILES | TGI [1] | TGI [2] | TGI [3] | TGI [4] | TGI [5] | TGI [6] | TGI [7] | TGI [8] | TGI [9] | TGI [10] | TGI [11] | TGI [12] |
| --- | --- | --- | --- | --- | --- | --- | --- | --- | --- | --- | --- | --- |
| O=c1c2c(nc3n1CCC3)sc1c(O)c(Br)ccc12 | 37.4 µM | 32.4 µM | 31 µM | 45.3 µM | > 100 µM | 36.7 µM | > 100 µM | 57.3 µM |  |  |  |  |
| Nc1c(N=Nc2ccc(-c3ccc(N=Nc4c(O)ccc5cc(S(=O)(=O)O)cc(S(=O)(=O)O)c45)cc3)cc2)c(S(=O)(=O)O)cc2cc(S(=O)(=O)O)c(N=Nc3ccccc3)c(O)c12 |  | > 100 µM | > 100 µM | > 100 µM | > 100 µM | > 100 µM | 90.7 µM | > 100 µM | > 100 µM |  |  |  |
| CCN(CC)CCCCC1CCN(CC(=O)N2c3ccccc3NC(=O)CC2C)CC1 (stereo unspecified) | > 100 µM | > 100 µM | > 100 µM | > 100 µM | > 100 µM | > 100 µM | > 100 µM | > 100 µM |  | > 100 µM |  |  |
| OC12CCCCCC1(N1CCOCC1)c1ccccc12 (stereo unspecified) | > 100 µM | > 100 µM | > 100 µM | > 100 µM |  | > 100 µM | > 100 µM | > 100 µM |  | > 100 µM |  |  |
| CCOc1ccc(-c2oc(/C=N/NS(=O)(=O)c3ccc(C)cc3)c([N+](=O)[O-])c2-c2ccc(OCC)cc2)cc1 | 29.7 µM | 12 µM | 23 µM | > 64.3 µM | 31.5 µM | 43.3 µM | 35.2 µM | 21.2 µM |  | 26.6 µM |  |  |
| O=C(OCc1ccccc1C1CSCSC1)c1cc(C(=O)OCc2ccccc2C2CSCSC2)c(C(=O)OCc2ccccc2C2CSCSC2)cc1C(=O)OCc1ccccc1C1CSCSC1 | > 100 µM | > 100 µM | > 100 µM | > 100 µM | > 100 µM | > 100 µM | > 100 µM | > 100 µM |  | > 100 µM |  |  |
| Cc1cc2occ(-c3ccc(Cl)cc3)c2c(=O)o1 | > 100 µM | > 100 µM | > 100 µM | > 100 µM | > 100 µM | > 100 µM | > 100 µM | > 100 µM |  | > 100 µM |  |  |
| Nc1ncc(/C=N/O)c(NCC2(CO)CC(CCc3ccccc3)C2)n1 (stereo unspecified) | 37.2 µM |  |  | 24.8 µM | 30.2 µM | 30.7 µM | 30.8 µM | 26.4 µM | 22.2 µM |  | 26.8 µM | 17.2 µM |
| Cc1c2cccc-2ccc2c1[nH]c1ccccc12 | 10.1 µM |  |  | 12.9 µM | 7.75 µM | 6.03 µM | 4.33 µM | 3.17 µM | 12.9 µM |  | 3.45 µM | 8.45 µM |
| O=c1oc2ccc(Cl)cc2cc1-c1cn2ccsc2n1 | > 100 µM |  |  | > 100 µM | 64.3 µM | > 100 µM | > 100 µM | > 100 µM | 65.4 µM |  | > 100 µM | > 100 µM |
| COC(=O)C(NC(=O)CSc1nnc(COc2ccc(Cl)cc2)n1-c1ccccc1)C(C)C (stereo unspecified) | 38.8 µM |  |  | 35.2 µM | 77.2 µM | 31.5 µM | 38.9 µM | > 100 µM | > 100 µM |  | 50.9 µM | 70.6 µM |
| O=P(O)(O)CN1CCNCCN(CP(=O)(O)O)CCNCC1 | > 100 µM |  |  | > 100 µM | 9.76 µM | > 100 µM | > 100 µM | > 100 µM | > 100 µM |  | > 100 µM | > 100 µM |
| COC(=O)n1c(C[P+](c2ccccc2)(c2ccccc2)c2ccccc2)cc2ccccc21 | 12.8 µM | 9.29 µM | 6.25 µM | 4.57 µM | 3.34 µM | 11.2 µM |  | 17.5 µM |  | 3.73 µM |  |  |
| C=C1CC(Cn2cc(Br)c(=O)[nH]c2=O)(c2ccc(-c3ccccc3)cc2)OC1=O (stereo unspecified) | 2.29 µM |  |  | 19.3 µM | 0.113 µM | 2.98 µM | 17.6 µM | 18.4 µM | 1.75 µM |  | 3.31 µM | 4.87 µM |
| O=S1(=O)CCN(c2ccccc2CC(c2c[nH]c3ccccc23)c2c[nH]c3ccccc23)CC1 | 27.8 µM | > 100 µM | 37.5 µM | 35.7 µM | 25.3 µM | 20.9 µM | 23.6 µM | 24 µM | > 100 µM | 25.7 µM | 13.2 µM | > 100 µM |
| Cc1cc(=O)[nH]c(NNC(C#N)c2ccc([N+](=O)[O-])cc2)n1 (stereo unspecified) | > 100 µM | > 100 µM | > 100 µM | > 100 µM | > 100 µM | > 100 µM | > 100 µM | > 100 µM |  | > 100 µM |  |  |
| CC(=O)NC1=C(NCC(C)C)C(=O)c2ccccc2C1=O | 31.9 µM | 31.7 µM | 30.7 µM | > 100 µM | 28.3 µM | 32.4 µM | 31.1 µM | > 100 µM |  | 34.4 µM |  |  |
| COc1ccc(C=Nc2ccc(-c3nc4ccccc4[nH]3)cc2)cc1OC | > 100 µM |  |  | > 100 µM | > 100 µM | > 100 µM | 52.3 µM | > 100 µM | > 100 µM |  | > 100 µM | > 100 µM |
